Drawing on the NIST ThermoML archive (doi:10.1016/j.jct.2007.01.009), this text covers mass density for seven molecules.

± gives the expanded uncertainty stated by the source.

The conditions of data set [1]: 101.33 kPa, Liquid.
The nature of data set [2]: xn = mol fraction of the nth substance listed. Particulars: 283.15 K; 101 kPa; Liquid; Pycnometric method; x2 = 0.

As usually defined, the mass density is the mass of a sample divided by its volume. In the case of `CCCCC(O)CO` (configuration not stated) [1,2-hexanediol], the mass density in data set [1] (283.15 K) turned out to be 958.87 ± 1.2 kg/m3; in data set [1] (288.15 K) it was 955.23 ± 1.2 kg/m3; in data set [1] (293.15 K) it was 951.68 ± 1.2 kg/m3; in data set [1] (298.15 K) it was 948.08 ± 1.2 kg/m3; in data set [1] (303.15 K) it was 944.54 ± 1.2 kg/m3; in data set [1] (308.15 K), 940.88 ± 1.2 kg/m3.

As for `CC(O)CCCCO` (configuration not stated) [1,5-hexanediol], the mass density is recorded as 978.41 ± 0.69 kg/m3 in data set [1] (283.15 K); 975.51 ± 0.66 kg/m3 in data set [1] (288.15 K); 972.31 ± 0.64 kg/m3 in data set [1] (293.15 K); 968.91 ± 0.66 kg/m3 in data set [1] (298.15 K); 965.51 ± 0.67 kg/m3 in data set [1] (303.15 K); 962.15 ± 0.69 kg/m3 in data set [1] (308.15 K).

With `CC(O)CCC(C)O` (configuration not stated) [2,5-hexanediol], the mass density is 968.85 ± 0.68 kg/m3 in data set [1] (283.15 K); 965.56 ± 0.65 kg/m3 in data set [1] (288.15 K); 962.17 ± 0.63 kg/m3 in data set [1] (293.15 K); 959.09 ± 0.65 kg/m3 in data set [1] (298.15 K); 955.72 ± 0.67 kg/m3 in data set [1] (303.15 K); 952.39 ± 0.68 kg/m3 in data set [1] (308.15 K).

In the case of `O` [water] + CC(O)CCC(C)O, in data set [2], the mass density was found to be 999.7 ± 0.3 kg/m3.

Regarding `O` [water] + CC(O)CCCCO, the mass density in data set [2] was found to be 999.7 ± 0.3 kg/m3.

For `O` [water] + CCCCC(O)CO, the mass density in data set [2] was 999.69 ± 0.3 kg/m3.

`O` [water] + OCCCCCCO: in data set [2], the mass density is recorded as 999.7 ± 0.3 kg/m3.
